Experimental data from patent US11028089B2, “Pyrimido-diazepinone kinase scaffold compounds and methods of treating DCLK1/2-mediated disorders” (DANA-FARBER CANCER INSTITUTE, INC., priority 2016, dated 2021).

Target: T1, recombinant DCLK1 (Homo sapiens, UniProt O15075)
T1 construct: N-terminally 6-His tagged human DCLK1 residues G351-H689 was prepared; 6-His (N); made in house; host or cells: E. coli BL21(DE3), co-transformed with lambda phosphatase
T1 sequence (O15075 351-689 isoform O15075-2): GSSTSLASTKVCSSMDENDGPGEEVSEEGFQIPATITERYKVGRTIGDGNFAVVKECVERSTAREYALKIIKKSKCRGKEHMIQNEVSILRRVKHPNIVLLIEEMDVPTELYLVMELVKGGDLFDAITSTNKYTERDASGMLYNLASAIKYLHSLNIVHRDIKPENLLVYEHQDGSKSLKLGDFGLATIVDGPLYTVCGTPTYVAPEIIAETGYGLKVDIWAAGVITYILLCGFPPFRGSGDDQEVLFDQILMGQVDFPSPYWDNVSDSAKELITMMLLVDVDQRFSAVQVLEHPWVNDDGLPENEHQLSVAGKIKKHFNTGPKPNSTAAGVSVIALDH
Assay: DCLK1 mobility shift assay (gel shift assay)
Format: biochemical
Conditions: 30 nM recombinant DCLK1, 100 μM ATP, 1 μM FAM-labeled peptide substrate, two hours at room temperature, 8-point dose-response
Description: The DNA construct consisting of N-terminally 6-His tagged human DCLK1 residues G351-H689 was prepared. Thus prepared plasmid was co-transformed with lambda phosphatase under chloramphenicol selection into BL21(DE3) E. coli cells.
Protein expression was induced from the DCLK1 plasmid with 0.6 mM IPTG and expression was allowed to continue for about 10 hours at a temperature of 18° C. Cells was harvested by centrifugation and resuspended in Lysis buffer with protease inhibitors (1 mM Benzamidine and 1 mM PMSF). Lysis was performed by passing 3 times through a homogenizer. Lysate was centrifuged at 20K for 1 hour at a temperature of 4° C. and the supernatant was filtered through a 0.2 micron membrane. Protein was loaded on nickel (Ni)-NTA resin, washed with Wash buffers, and eluted with 300 mM imidazole buffer. […]
DCLK1 kinase activity was measured in vitro using an electrophoretic mobility shift assay. […] Substrate and product peptides present in each sample were electrophoretically separated and detected using 12-channel LabChip3000 microfluidic capillary electrophoresis instrument (Caliper Life Sciences, Waltham Mass., USA). The change in the relative fluorescence intensities of substrate and product peaks (reflecting enzyme activity) was measured. Capillary electrophoregrams were analyzed using HTS Well Analyzer software (Caliper Life Sciences, Waltham Mass., USA).

COc1cc(N2CCN(C)CC2)ccc1Nc1ncc2c(n1)N(C)c1ccccc1C(=O)N2CC(F)(F)F [Compound 2, 2-((2-methoxy-4-(4-methylpiperazin-1-yl)phenyl)amino)-11-methyl-5-(2,2,2-trifluoroethyl)-5,11-dihydro-6H-benzo[e]pyrimido[5,4-b][1,4]diazepin-6-one]
IC50 against DCLK1 compared with the positive control (FIG. 2): substantially decreased from the IC50 value of the positive control

COc1cc(C(=O)NC2CCN(C)CC2)ccc1Nc1ncc2c(n1)N(C)c1ccccc1C(=O)N2CC(F)(F)F [Compound 8, 3-methoxy-4-((11-methyl-6-oxo-5-(2,2,2-trifluoroethyl)-6,11-dihydro-5H-benzo[e]pyrimido[5,4-b][1,4]diazepin-2-yl)amino)-N-(1-methylpiperidin-4-yl)benzamide]
IC50 against DCLK1 compared with the positive control (FIG. 2): substantially decreased from the IC50 value of the positive control
